Measurements from US20170008888A1 (KYORIN PHARMACEUTICAL CO., LTD., priority 2014, published 2017).

Experiments:
ERK5 = target: T1, ERK5 (Homo sapiens, UniProt Q13164); assay: Probe-based (AX9989 acyl phosphate ATP probe) kinase profiling in Jurkat lysate: ERK5; assay type: binding; settings: for IC50: Jurkat lysate; for inhibition at 1 µM: screening concentration 1.0 μM, read-out: Kinase inhibition % at indicated screening concentration: ERK5
T1 construct: screened for activity against several kinases in Jurkat cells; endogenous in cells; host or cells: Jurkat cell lysate
T1 sequence (Q13164 whole entry): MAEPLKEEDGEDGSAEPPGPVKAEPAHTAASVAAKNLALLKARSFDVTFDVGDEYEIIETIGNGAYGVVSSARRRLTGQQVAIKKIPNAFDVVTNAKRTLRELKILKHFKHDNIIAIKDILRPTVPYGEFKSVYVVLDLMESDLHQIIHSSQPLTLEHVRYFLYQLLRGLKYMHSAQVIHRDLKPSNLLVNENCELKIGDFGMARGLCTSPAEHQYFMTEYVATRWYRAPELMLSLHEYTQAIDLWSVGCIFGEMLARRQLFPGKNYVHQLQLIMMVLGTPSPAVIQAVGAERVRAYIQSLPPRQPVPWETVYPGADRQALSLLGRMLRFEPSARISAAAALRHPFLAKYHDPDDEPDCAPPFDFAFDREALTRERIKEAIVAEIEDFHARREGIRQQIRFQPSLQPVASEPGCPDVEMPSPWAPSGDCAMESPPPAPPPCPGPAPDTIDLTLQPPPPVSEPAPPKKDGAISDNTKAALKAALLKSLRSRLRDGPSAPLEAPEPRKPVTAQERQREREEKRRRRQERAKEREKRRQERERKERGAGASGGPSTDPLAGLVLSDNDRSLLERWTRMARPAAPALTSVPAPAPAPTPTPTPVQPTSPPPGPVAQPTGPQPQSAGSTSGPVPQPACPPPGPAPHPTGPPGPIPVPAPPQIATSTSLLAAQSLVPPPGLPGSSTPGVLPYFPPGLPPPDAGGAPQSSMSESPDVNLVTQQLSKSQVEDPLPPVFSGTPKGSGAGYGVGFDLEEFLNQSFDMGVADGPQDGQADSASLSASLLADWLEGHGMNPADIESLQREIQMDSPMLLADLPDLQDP
Procedure: (§1) In this example, potency of the compounds as ERK5 inhibitors was assessed, and the compounds were screened for activity against several kinases in Jurkat cells.
(§2) Jurkat cell pellets were resuspended in four volumes of lysis buffer (50 mM HEPES pH 7.5, 150 mM NaCl, 0.1% Triton-X-100, 1% v/v phosphatase, inhibitor cocktail II [EMD/Calbiochem, #524625]), sonicated using a tip, sonicator, and Dounce homogenized. Lysate was cleared by centrifugation, at 16,000 g for 15 min., was gel filtered (BioRad 10DG) and MnCl2 was then added to a final concentration of 20 mM before treatment with the test compound and probe labeling. […] All compound treatments were performed at room temperature.
(§3) Acyl phosphate ATP probe (AX9989) labeling reactions were performed at room temperature with a final probe concentration of 5 μM after a 15 min pre-incubation of lysate with a test compound. All reactions were performed in duplicate, using 445 μl/sample at 5 mg/ml. Probe-labeled lysates were denatured and reduced (6 M urea, 10 mM DTT, 65° C., 15 min), alkylated (40 mM iodoacetamide, 37° C., 30 min, and gel filtered (Sephadex G25) into 10 mM ammonium bicarbonate, 2 M urea, 5 mM methionine. The desalted protein mixture was digested with trypsin (0.015 mg/ml) for 1 hr at 37° C., and desthiobiotinylated peptides were captured using a […] high-capacity streptavidin resin (Thermo Scientific). Captured peptides were then washed extensively using 150 μl/wash with three different wash buffers: (A) 3 times with 1% triton, 0.5% tergitol, 1 mM EDTA in PBS; (B) 18 times with PBS; and (C) 8 times with HPLC grade water. Peptides were eluted from the streptavidin beads using two 35-μL washes of a 50% CH3CN/water mixture containing 0.1% TFA at room temperature.
(§4) Kinase active site peptides were identified and quantified using LC/MS. Percent inhibition was calculated as the normalized decrease in the ESI-MS fragment intensities of probe-labeled peptides in samples incubated with the test compound compared to those without.
ERK5 IC50 values were calculated from the percent inhibition and the screening concentration.

AurA = target: T2, AurA (Homo sapiens, UniProt O14965); assay: Probe-based (AX9989) kinase profiling in Jurkat lysate: AurA; assay type: binding; settings: for inhibition at 1 µM: screening concentration 1.0 μM, read-out: Kinase inhibition % at indicated screening concentration: AurA
T2 construct: screened for activity against several kinases in Jurkat cells; endogenous in cells; host or cells: Jurkat cell lysate
T2 sequence (O14965 1-403): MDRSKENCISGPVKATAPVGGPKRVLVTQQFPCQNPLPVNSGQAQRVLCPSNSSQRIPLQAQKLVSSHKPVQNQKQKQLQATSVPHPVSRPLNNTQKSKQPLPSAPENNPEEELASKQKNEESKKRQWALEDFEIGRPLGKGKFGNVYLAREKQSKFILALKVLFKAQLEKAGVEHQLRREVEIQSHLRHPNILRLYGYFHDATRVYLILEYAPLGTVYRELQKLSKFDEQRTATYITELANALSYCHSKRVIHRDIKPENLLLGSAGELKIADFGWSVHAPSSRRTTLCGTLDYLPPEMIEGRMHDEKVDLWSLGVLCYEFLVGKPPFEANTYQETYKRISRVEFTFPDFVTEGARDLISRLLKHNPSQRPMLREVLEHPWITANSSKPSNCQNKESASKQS
Procedure: as §1, §2, §3, §4

AurB or AurC = assay: Probe-based (AX9989) kinase profiling in Jurkat lysate: AurB or AurC; assay type: binding; settings: for Kinase inhibition % at indicated screening concentration: AurB or AurC: screening concentration 1.0 μM
Procedure: as §1, §2, §3, §4

JAK1 = target: T3, JAK1 (Homo sapiens, UniProt P23458); assay: Probe-based (AX9989) kinase profiling in Jurkat lysate: JAK1; assay type: binding; settings: for inhibition at 1 µM: screening concentration 1.0 μM, read-out: Kinase inhibition % at indicated screening concentration: JAK1
T3 construct: screened for activity against several kinases in Jurkat cells; endogenous in cells; host or cells: Jurkat cell lysate
T3 sequence (P23458 whole entry): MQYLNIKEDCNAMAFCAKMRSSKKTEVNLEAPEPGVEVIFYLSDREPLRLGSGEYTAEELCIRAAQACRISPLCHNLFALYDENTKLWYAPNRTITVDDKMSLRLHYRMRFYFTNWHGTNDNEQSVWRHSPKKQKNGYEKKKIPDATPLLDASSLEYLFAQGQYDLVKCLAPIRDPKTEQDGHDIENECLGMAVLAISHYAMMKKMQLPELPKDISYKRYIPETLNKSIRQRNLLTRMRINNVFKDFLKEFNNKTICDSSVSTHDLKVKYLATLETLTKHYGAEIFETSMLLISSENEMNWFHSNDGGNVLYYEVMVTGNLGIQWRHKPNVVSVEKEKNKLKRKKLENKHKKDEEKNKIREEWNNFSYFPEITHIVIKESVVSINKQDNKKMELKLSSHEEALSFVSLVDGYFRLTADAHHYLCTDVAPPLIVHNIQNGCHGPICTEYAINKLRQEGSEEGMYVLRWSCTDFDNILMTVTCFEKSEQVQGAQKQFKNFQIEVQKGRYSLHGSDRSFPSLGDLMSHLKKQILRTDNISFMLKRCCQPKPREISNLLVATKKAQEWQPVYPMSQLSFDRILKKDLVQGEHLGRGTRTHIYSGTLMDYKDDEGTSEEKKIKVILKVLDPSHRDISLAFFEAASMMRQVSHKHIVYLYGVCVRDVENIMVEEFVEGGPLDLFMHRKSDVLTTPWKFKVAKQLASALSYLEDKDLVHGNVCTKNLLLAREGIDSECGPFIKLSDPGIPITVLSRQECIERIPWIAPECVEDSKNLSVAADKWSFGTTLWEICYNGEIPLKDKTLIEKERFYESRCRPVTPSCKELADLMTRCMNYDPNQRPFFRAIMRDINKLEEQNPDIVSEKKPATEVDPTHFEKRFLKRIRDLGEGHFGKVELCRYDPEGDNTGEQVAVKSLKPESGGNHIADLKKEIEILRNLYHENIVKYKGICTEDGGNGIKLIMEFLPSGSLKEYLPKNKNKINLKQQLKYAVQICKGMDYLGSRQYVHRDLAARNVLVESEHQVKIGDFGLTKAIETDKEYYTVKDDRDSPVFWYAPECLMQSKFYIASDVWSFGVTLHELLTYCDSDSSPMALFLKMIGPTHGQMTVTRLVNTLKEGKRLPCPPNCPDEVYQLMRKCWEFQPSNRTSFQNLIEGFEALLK
Procedure: as §1, §2, §3, §4

AMPKa1 or AMPKa2 = assay: Probe-based (AX9989) kinase profiling in Jurkat lysate: AMPKa1 or AMPKa2; assay type: binding; settings: for Kinase inhibition % at indicated screening concentration: AMPKa1 or AMPKa2: screening concentration 1.0 μM
Procedure: as §1, §2, §3, §4

TAO2 = target: T4, TAO2 (Homo sapiens, UniProt Q9UL54); assay: Probe-based (AX9989) kinase profiling in Jurkat lysate: TAO2; assay type: binding; settings: for inhibition at 1 µM: screening concentration 1.0 μM, read-out: Kinase inhibition % at indicated screening concentration: TAO2
T4 construct: screened for activity against several kinases in Jurkat cells; endogenous in cells; host or cells: Jurkat cell lysate
T4 sequence (Q9UL54 1-1235): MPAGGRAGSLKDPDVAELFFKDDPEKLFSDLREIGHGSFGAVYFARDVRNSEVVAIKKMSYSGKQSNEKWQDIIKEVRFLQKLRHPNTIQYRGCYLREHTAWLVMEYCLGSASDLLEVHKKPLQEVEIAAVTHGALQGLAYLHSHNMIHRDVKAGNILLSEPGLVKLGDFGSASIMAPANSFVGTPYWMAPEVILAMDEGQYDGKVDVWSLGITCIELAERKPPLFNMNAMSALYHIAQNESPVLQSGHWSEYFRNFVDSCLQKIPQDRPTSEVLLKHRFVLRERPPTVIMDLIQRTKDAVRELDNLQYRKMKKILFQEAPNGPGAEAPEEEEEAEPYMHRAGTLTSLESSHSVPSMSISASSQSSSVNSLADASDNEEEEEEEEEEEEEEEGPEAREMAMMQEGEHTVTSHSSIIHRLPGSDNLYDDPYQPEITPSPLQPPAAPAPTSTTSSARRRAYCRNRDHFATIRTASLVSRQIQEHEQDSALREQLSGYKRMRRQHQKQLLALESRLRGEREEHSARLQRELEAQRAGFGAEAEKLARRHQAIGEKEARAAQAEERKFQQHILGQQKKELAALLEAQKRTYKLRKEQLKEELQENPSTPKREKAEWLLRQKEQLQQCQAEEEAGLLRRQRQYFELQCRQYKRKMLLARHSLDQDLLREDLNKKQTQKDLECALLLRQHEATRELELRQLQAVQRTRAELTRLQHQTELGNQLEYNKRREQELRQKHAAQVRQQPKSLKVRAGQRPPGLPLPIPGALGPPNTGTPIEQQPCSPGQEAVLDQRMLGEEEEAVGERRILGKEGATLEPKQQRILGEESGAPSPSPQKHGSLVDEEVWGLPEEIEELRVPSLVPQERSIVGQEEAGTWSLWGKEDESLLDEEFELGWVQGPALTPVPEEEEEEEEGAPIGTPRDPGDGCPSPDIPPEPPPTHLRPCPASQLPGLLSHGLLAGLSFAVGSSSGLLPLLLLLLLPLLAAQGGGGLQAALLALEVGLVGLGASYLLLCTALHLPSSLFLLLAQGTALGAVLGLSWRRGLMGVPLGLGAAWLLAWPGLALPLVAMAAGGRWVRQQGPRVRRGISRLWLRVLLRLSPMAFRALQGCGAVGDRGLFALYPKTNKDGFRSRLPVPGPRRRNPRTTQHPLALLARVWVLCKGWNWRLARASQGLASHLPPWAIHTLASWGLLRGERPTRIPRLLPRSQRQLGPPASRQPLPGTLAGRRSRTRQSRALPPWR
Procedure: as §1, §2, §3, §4

ACK = target: T5, ACK (Homo sapiens, UniProt Q07912); assay: Probe-based (AX9989) kinase profiling in Jurkat lysate: ACK; assay type: binding; settings: for inhibition at 1 µM: screening concentration 1.0 μM, read-out: Kinase inhibition % at indicated screening concentration: ACK
T5 construct: screened for activity against several kinases in Jurkat cells; endogenous in cells; host or cells: Jurkat cell lysate
T5 sequence (Q07912 whole entry): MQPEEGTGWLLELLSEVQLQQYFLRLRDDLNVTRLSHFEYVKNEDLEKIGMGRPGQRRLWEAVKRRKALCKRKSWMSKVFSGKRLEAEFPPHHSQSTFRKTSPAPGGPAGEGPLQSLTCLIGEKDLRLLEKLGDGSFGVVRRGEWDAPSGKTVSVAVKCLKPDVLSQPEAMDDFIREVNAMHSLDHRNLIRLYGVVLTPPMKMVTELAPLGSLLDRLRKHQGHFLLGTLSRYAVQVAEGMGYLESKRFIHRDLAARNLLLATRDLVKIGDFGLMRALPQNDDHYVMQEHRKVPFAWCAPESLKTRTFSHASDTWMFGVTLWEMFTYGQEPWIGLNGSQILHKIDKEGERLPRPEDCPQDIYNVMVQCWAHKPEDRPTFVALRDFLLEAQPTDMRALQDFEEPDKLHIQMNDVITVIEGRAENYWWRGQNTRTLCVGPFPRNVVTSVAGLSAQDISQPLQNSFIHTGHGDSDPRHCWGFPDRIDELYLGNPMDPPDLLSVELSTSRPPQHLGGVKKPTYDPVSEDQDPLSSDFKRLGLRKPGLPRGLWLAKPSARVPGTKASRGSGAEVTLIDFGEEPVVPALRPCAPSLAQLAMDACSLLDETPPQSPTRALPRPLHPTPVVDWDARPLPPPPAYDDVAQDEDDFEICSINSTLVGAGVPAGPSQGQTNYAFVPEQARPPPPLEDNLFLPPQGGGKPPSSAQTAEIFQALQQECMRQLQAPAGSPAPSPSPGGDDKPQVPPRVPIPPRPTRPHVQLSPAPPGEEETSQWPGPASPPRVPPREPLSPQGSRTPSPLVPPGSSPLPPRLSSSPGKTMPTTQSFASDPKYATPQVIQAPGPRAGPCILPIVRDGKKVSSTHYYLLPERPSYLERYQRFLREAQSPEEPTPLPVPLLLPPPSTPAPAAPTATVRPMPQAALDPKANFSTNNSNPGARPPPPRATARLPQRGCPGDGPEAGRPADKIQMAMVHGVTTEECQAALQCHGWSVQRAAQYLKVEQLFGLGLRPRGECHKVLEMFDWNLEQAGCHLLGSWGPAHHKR
Procedure: as §1, §2, §3, §4

ABL or ARG = assay: Probe-based (AX9989) kinase profiling in Jurkat lysate: ABL or ARG; assay type: binding; settings: for Kinase inhibition % at indicated screening concentration: ABL or ARG: screening concentration 1.0 μM
Procedure: as §1, §2, §3, §4

human PBMCs = assay: Human PBMC TNF-α response to endotoxin (ELISA); assay type: cell-based; settings: 0.1 μg/ml LPS 16 h, read-out: EC50 for the inhibition of the human PBMC TNF-α response to endotoxin, ave. ± S.D.
Procedure: Human PBMCs (Astarte Biologics, Redmond, Wash.) were seeded at 2e6 cells/ml in RPMI 1640 containing 10% (v/v) charcoal-dextran treated, heat inactivated FBS (Omega Scientific, Tarzana, Calif.), 0.05 mM 2-Mercaptoethanol (Sigma-Aldrich, St. Louis, Mo.), and 1×Pen/Strep Amphotericin B (Lonza, Allendale, N.J.). Cells were pre-treated with test compounds (10 μM down by ⅕ in a 4-point serial dilution series) for 1 h at 37° C. in a humidified atmosphere at 5% CO2. Cells were then stimulated with 0.1 μg/ml lipopolysaccharide (LPS) from E. coli 0111:B4 (EMD Millipore, Billerica, Mass.) for 16 h at 37° C. in a humidified atmosphere at 5% CO2. Supernatant was collected and a 25-fold dilution was analyzed for TNF-α concentration using an ELISA kit from Life Technologies (Grand Island, N.Y.) according to the manufacturer's instructions. Absorbance at 450 nm was read using the Synergy 2 multi-detection microplate reader (BioTek Instruments, Winooski, Vt.).

[1] = calculated from percent inhibition of AX9989 labeling and the screening concentration

SMILES	IC50 (ERK5; [1])	inhibition at 1 µM (ERK5)	inhibition at 1 µM (AurA)	Kinase inhibition % at indicated screening concentration: AurB or AurC (AurB or AurC)	inhibition at 1 µM (JAK1)	Kinase inhibition % at indicated screening concentration: AMPKa1 or AMPKa2 (AMPKa1 or AMPKa2)	inhibition at 1 µM (TAO2)	inhibition at 1 µM (ACK)	Kinase inhibition % at indicated screening concentration: ABL or ARG (ABL or ARG)	IC50 (ERK5; calculated from percent inhibition and screening concentration, AX9989 probe)	inhibition at 10 µM (ERK5; screening concentration 10 μM, read-out: ERK5 Inhibition % at indicated screening concentration)	inhibition at 10 µM (AurA; screening concentration 10 μM, read-out: AurA Inhibition % at indicated screening concentration)	AurB or AurC Inhibition % at indicated screening concentration (AurB or AurC; screening concentration 10 μM)	inhibition at 10 µM (JAK1; screening concentration 10 μM, read-out: JAK1 Inhibition % at indicated screening concentration)	AMPKa1 or AMPKa2 Inhibition % at indicated screening concentration (AMPKa1 or AMPKa2; screening concentration 10 μM)	inhibition at 10 µM (TAO2; screening concentration 10 μM, read-out: TAO2 Inhibition % at indicated screening concentration)	inhibition at 10 µM (ACK; screening concentration 10 μM, read-out: ACK Inhibition % at indicated screening concentration)	ABL or ARG Inhibition % at indicated screening concentration (ABL or ARG; screening concentration 10 μM)	EC50 (human PBMCs)
COc1ccccc1Nc1cc2c(cn1)N(C)C(=O)c1ccccc1N2C [Compound 19]	> 500 nM	50 to 75%	≤ 35%	E (E is ≦35%)	≤ 35%	E (E is ≦35%)	≤ 35%	≤ 35%	E (E is ≦35%)	–	–	–	–	–	–	–	–	–	–
COc1ccc(C(=O)N2CCNCC2)cc1Nc1cc2c(cn1)N(C)C(=O)c1ccccc1N2C [Compound 87]	101 to 500 nM	50 to 75%	≤ 35%	E (E is ≦35%)	≤ 35%	E (E is ≦35%)	≤ 35%	≤ 35%	E (E is ≦35%)	–	–	–	–	–	–	–	–	–	–
Cc1nn(C)cc1Nc1cc2c(cn1)N(C)C(=O)c1ccccc1N2C [Compound 22]	101 to 500 nM	75 to 90%	≤ 35%	E (E is ≦35%)	≤ 35%	E (E is ≦35%)	≤ 35%	≤ 35%	E (E is ≦35%)	–	–	–	–	–	–	–	–	–	–
CN1C(=O)c2ccccc2N(C)c2cc(Nc3ccccc3Cl)ncc21 [Compound 86]	> 500 nM	50 to 75%	≤ 35%	E (E is ≦35%)	≤ 35%	E (E is ≦35%)	≤ 35%	≤ 35%	E (E is ≦35%)	–	–	–	–	–	–	–	–	–	–
CN1C(=O)c2ccccc2N(C)c2cc(N[C@H]3CC[C@H](NC(=O)N4CCCC4)CC3)ncc21 [Compound 60]	101 to 500 nM	75 to 90%	≤ 35%	E (E is ≦35%)	≤ 35%	E (E is ≦35%)	≤ 35%	≤ 35%	E (E is ≦35%)	–	–	–	–	–	–	–	–	–	–
CCOc1cc(C(=O)N2CCOCC2)ccc1Nc1cc2c(cn1)N(C)C(=O)c1ccccc1S2(=O)=O [Compound T84]	–	–	–	–	–	–	–	–	–	> 500 nM	75 to 90%	≤ 35%	E (E is ≦35%)	≤ 35%	E (E is ≦35%)	≤ 35%	≤ 35%	E (E is ≦35%)	–
COC(=O)[C@H]1CC[C@H](Nc2cc3c(cn2)N(C)C(=O)c2ccccc2N3C)CC1 [Compound 81]	> 500 nM	50 to 75%	≤ 35%	E (E is ≦35%)	≤ 35%	E (E is ≦35%)	≤ 35%	≤ 35%	E (E is ≦35%)	–	–	–	–	–	–	–	–	–	–
Cc1ccc(Nc2cc3c(cn2)N(C)C(=O)c2ccccc2N3C)c(C)c1 [Compound 3]	> 500 nM	35 to 50%	–	–	–	–	–	–	–	–	–	–	–	–	–	–	–	–	4230 nM
